Assay results published in paper PMC6272684, “Synthesis, Antiproliferative and Antifungal Activities of 1,2,3-Triazole-Substituted Carnosic Acid and Carnosol Derivatives” (Molecules, 2015).
Values joined by “and” are separate entries in the source; they are usually repeats but may differ in a detail not shown here. Equal entries are not always repeated.

How the values were obtained:
[1] = tested on: C. neoformans ATCC 32264; experiment: Antifungal broth microdilution (CLSI M27-A3), growth inhibition; format: cell-based, Cryptococcus neoformans; details: for MIC50 (minimum concentration to inhibit 50% of fungal growth), C. neoformans: C. neoformans ATCC 32264
Experimental: (§1) The antifungal properties of compounds 1–24 against two clinical important fungal species, C. albicans ATCC 10231 and C. neoformans ATCC 32264 were investigated. Results were expressed as the percentages of inhibition of each fungus in the range 250–3.9 μg∙mL^−1 by using the standardized microbroth dilution method M-27A3 of Clinical and Laboratory Standards Institute which assures reliable and reproducible results.
(§2) For the antifungal evaluation, standardized strains from the American Type Culture Collection (ATCC), Rockville, MD, USA, were used. The microorganisms included yeasts (Candida albicans ATCC 10231 and Cryptococcus neoformans ATCC 32264). Strains were grown on Sabouraud-chloramphenicol agar slants for 48 h at 30 °C, maintained on slopes of Sabouraud-dextrose agar (SDA, Oxoid), and subcultured every 15 days to prevent pleomorphic transformations. Inocula of cell or spore suspensions were obtained according to reported procedures and adjusted to 1–5 × 10^3 cells/spores with colony forming units (CFU)/mL [29].
(§3) Broth microdilution techniques were performed in 96-well microplates according to the Clinical and Laboratory Standards Institute Reference Method for Broth Dilution Antifungal Susceptibility Testing of Yeasts, Approved Standard M27-A3 [29]. For the assay, compound test wells (CTWs) were prepared with stock solutions of each compound in DMSO (maximum concentration ≤1%), diluted with RPMI-1640, to final concentrations of 250–3.9 μg∙mL^−1. An inoculum suspension (100 μL) was added to each well (final volume in the well = 200 μL). A growth control well (GCW) (containing medium, inoculum, and the same amount of DMSO used in a CTW, but compound-free) and a sterility control well (SCW) (sample, medium, and sterile water instead of inoculum) were included for each fungus tested. Microtiter trays were incubated in a moist, dark chamber at 30 °C for 48 h for both yeasts. Microplates were read in a VERSA Max microplate reader (Molecular Devices, Sunnyvale, CA, USA). Amphotericin B (Sigma-Aldrich) was used as positive control. Tests were performed in triplicate. Reduction of growth for each compound concentration was calculated as follows: % of inhibition = 100 − (OD 405 CTW − OD 405 SCW)/(OD 405 GCW − OD 405 SCW). The means ± SEM were the results of triplicate tests. Three endpoints were defined from the assay explained above and the dose-response curves. Minimum Inhibitory concentration (MIC) resulting in total fungal growth inhibition was named MIC100 while MIC50 was defined as the minimum concentration that inhibits 50% of the fungal growth.

[2] = tested on: C. albicans ATCC 10231; experiment: as above; format: cell-based, Candida albicans; details: for MIC50 (minimum concentration to inhibit 50% of fungal growth), C. albicans: C. albicans ATCC 10231
Experimental: as §1, §2, §3

Compound | Inhibition percentage against C. neoformans ATCC 32264 ([1]; 3.9 μg∙mL^−1, 48 h) [%] | Inhibition percentage against C. neoformans ATCC 32264 ([1]; 7.8 μg∙mL^−1, 48 h) [%] | Inhibition percentage against C. neoformans ATCC 32264 ([1]; 15.6 μg∙mL^−1, 48 h) [%] | Inhibition percentage against C. neoformans ATCC 32264 ([1]; 31.2 μg∙mL^−1, 48 h) [%] | Inhibition percentage against C. neoformans ATCC 32264 ([1]; 62.5 μg∙mL^−1, 48 h) [%] | Inhibition percentage against C. neoformans ATCC 32264 ([1]; 125 μg∙mL^−1, 48 h) [%] | Inhibition percentage against C. neoformans ATCC 32264 ([1]; 250 μg∙mL^−1, 48 h) | MIC50 (minimum concentration to inhibit 50% of fungal growth), C. neoformans [1] [µg/mL] | Inhibition percentage against C. albicans ATCC 10231 ([2]; 3.9 μg∙mL^−1, 48 h) [%] | Inhibition percentage against C. albicans ATCC 10231 ([2]; 7.8 μg∙mL^−1, 48 h) [%] | Inhibition percentage against C. albicans ATCC 10231 ([2]; 15.6 μg∙mL^−1, 48 h) [%] | Inhibition percentage against C. albicans ATCC 10231 ([2]; 62.5 μg∙mL^−1, 48 h) [%] | Inhibition percentage against C. albicans ATCC 10231 ([2]; 125 μg∙mL^−1, 48 h) [%] | Inhibition percentage against C. albicans ATCC 10231 ([2]; 250 μg∙mL^−1, 48 h) [%] | Inhibition percentage against C. albicans ATCC 10231 ([2]; 31. μg∙mL^−1, 48 h) [%] | MIC50 (minimum concentration to inhibit 50% of fungal growth), C. albicans [2] [µg/mL] | Antifungal activity against C. albicans (in words) ([2]; at the assayed concentrations (250–3.9 μg∙mL^−1))
COC(=O)C12CCCC(C)(C)C1CCc1cc(C(C)C)c(OC(=O)CCCc3cn(Cc4ccc(Br)cc4)nn3)c(OC(=O)CCCc3cn(Cc4ccc(Br)cc4)nn3)c12 (stereo not shown) [Compound 14, Methyl(11,12-O-(4-(1-(4-bromobenzyl)-1H-1,2,3-triazol-4-yl)-butanoyloxy)-abieta-8,11,13-triene)-20-oate] | 0.0 | 4.5 ± 0.2 | 10.1 ± 1.0 | 12.0 ± 1.2 | 16.9 ± 1.1 | 30.1 ± 1.4 | 57.2%–67.4% and 67.4 ± 1.7% | 250 | 1.3 ± 0.2 | 1.3 ± 0.3 | 1.9 ± 0.3 | 9.3 ± 1.5 | 13.3 ± 0.6 | 29.1 ± 2.5 | 6.3 ± 1.5 | >250 | –
COC(=O)C12CCCC(C)(C)C1CCc1cc(C(C)C)c(OC(=O)CCc3cn(Cc4ccc([N+](=O)[O-])cc4)nn3)c(OC(=O)CCc3cn(Cc4ccc([N+](=O)[O-])cc4)nn3)c12 (stereo not shown) [Compound 15, Methyl(11,12-O-(3-(1-(4-nitrobenzyl)-1H-1,2,3-triazol-4-yl)-propanoyloxy)-abieta-8,11,13-triene)-20-oate] | 0.0 | 0.0 | 10.0 ± 0.6 | 13.0 ± 1.4 | 15.5 ± 2.0 | 22.0 ± 2.7 | 45.4 ± 3.0% | >250 | 0.0 | 0.0 | 2.6 ± 0.3 | 8.2 ± 0.3 | 15.2 ± 2.8 | 33.4 ± 2.7 | 3.0 ± 1.1 | >250 | –
COC(=O)C12CCCC(C)(C)C1CCc1cc(C(C)C)c(OC(=O)CCCc3cn(Cc4ccc([N+](=O)[O-])cc4)nn3)c(OC(=O)CCCc3cn(Cc4ccc([N+](=O)[O-])cc4)nn3)c12 (stereo not shown) [Compound 16, Methyl(11,12-O-(4-(1-(4-nitrobenzyl)-1H-1,2,3-triazol-4-yl)-butanoyloxy)-abieta-8,11,13-triene)-20-oate] | 0.0 | 3.5 ± 0.4 | 5.0 ± 0.4 | 7.9 ± 0.1 | 14.5 ± 0.2 | 35.5 ± 0.4 | 36.9 ± 0.8% | >250 | 0.0 | 0.8 ± 0.1 | 2.3 ± 0.1 | 7.2 ± 0.1 | 11.7 ± 0.5 | 21.1 ± 2.4 | 3.4 ± 0.5 | >250 | –
CC(C)c1cc2c(c(OC(=O)CCc3cn(CSc4ccccc4)nn3)c1OC(=O)CCc1cn(CSc3ccccc3)nn1)C13CCCC(C)(C)C1CC2OC3=O (stereo not drawn) [Compound 17, (7β)-11,12-O-(3-(((1-phenylthio)methyl)-1H-1,2,3-triazol-4-yl)-propanoyloxy)-7,20-epoxyabieta-8,11,13-trien-20-one] | 0.0 | 0.0 | 0.0 | 0.0 | 0.0 | 11.4 ± 1.2 | 41.1 ± 1.3% | >250 | 0.0 | 2.8 ± 0.6 | 4.8 ± 1.0 | 11.5 ± 0.7 | 21.2 ± 0.2 | 42.3 ± 0.7 | 6.7 ± 1.1 | >250 | weak effect
CC(C)c1cc2c(c(OC(=O)CCCc3cn(CSc4ccccc4)nn3)c1OC(=O)CCCc1cn(CSc3ccccc3)nn1)C13CCCC(C)(C)C1CC2OC3=O (stereo not drawn) [Compound 18, (7β)-11,12-O-(4-(((1-phenylthio)methyl)-1H-1,2,3-triazol-4-yl)-butanoyloxy)-7,20-epoxyabieta-8,11,13-trien-20-one] | 0.0 | 0.0 | 0.0 | 0.0 | 0.0 | 11.8 ± 0.6 | 44.3 ± 1.9% | >250 | 1.0 ± 0.1 | 2.5 ± 0.2 | 2.8 ± 1.0 | 18.3 ± 0.1 | 35.4 ± 2.1 | 57.9 ± 1.0 | 11.5 ± 1.8 | 250 | –
CC(C)c1cc2c(c(OC(=O)CCc3cn(Cc4ccccc4)nn3)c1OC(=O)CCc1cn(Cc3ccccc3)nn1)C13CCCC(C)(C)C1CC2OC3=O (stereo not drawn) [Compound 19, (7β)-11,12-O-(3-(1-benzyl-1H-1,2,3-triazol-4-yl)-propanoyloxy)-7,20-epoxyabieta-8,11,13-trien-20-one] | 0.0 | 0.0 | 0.0 | 0.0 | 3.3 ± 1.1 | 7.1 ± 2.0 | 31.3 ± 1.6% | >250 | 0.7 ± 0.3 | 3.2 ± 0.1 | 3.2 ± 0.1 | 11.9 ± 1.0 | 21.1 ± 1.0 | 37.8 ± 0.5 | 4.6 ± 1.8 | >250 | –
